Test results reported in EPA's ToxRefDB 2.

Tests used:
dog [1] = details: Subchronic oral toxicity in nonrodent, beagle, Feed, dose end: 13 week, group: systemic, systemic / clinical chemistry / albumin-globulin ratio / albumin-globulin ratio + systemic / clinical chemistry / aspartate aminotransferase…
mouse = details: Subchronic oral toxicity in rodents, cd1, Feed, dose end: 13 week, group: systemic, systemic / pathology microscopic / liver / lipid deposition
rat [2] = details: Subchronic oral toxicity in rodents, sprague dawley, Feed, dose end: 13 week, group: systemic, systemic / pathology gross / kidney / discolored + systemic / in life observation / body weight / body weight + systemic / in life …
rat [3] = details: Combined chronic toxicity/carcinogenicity, sprague dawley, Oral, Feed, dose end: 104 week, group: systemic
dog [4] = details: Chronic toxicity, beagle, Oral, Feed, dose end: 52 week, group: systemic
rat [5] = details: Prenatal developmental toxicity study, wistar, Oral, Gavage/Intubation, dose end: 16 GD
[6] = systemic / in life observation / body weight / body weight + systemic / in life observation / body weight / body weight gain + systemic / in…
[7] = systemic / hematology / [other] / [other] + systemic / hematology / erythroblast / erythroblast + systemic / hematology / monocytes / …
[8] = systemic / hematology / erythroblast / erythroblast
[9] = group: developmental, developmental / developmental malformation / kidney / dilated renal pelvis + developmental / developmental malformation / ureter / distended
[10] = group: maternal, systemic / in life observation / clinical signs / salivation

COC(=O)c1ccc(I)cc1S(=O)(=O)[N-]C(=O)Nc1nc(C)nc(OC)n1.[Na+] [Iodosulfuron-methyl-sodium]
LEL (dog [1]): 49 mg/kg/day
LOAEL (dog [1]): 49 mg/kg/day
NEL (dog [1]): 8.1 mg/kg/day
NOAEL (dog [1]): 8.1 mg/kg/day
LEL (mouse): 139 mg/kg/day
LOAEL (mouse): 139 mg/kg/day
NEL (mouse): < 139 mg/kg/day
NOAEL (mouse): < 139 mg/kg/day
LEL (rat [2]): 347 mg/kg/day
LOAEL (rat [2]): 347 mg/kg/day
LOAEL (rat [3]; systemic / in life observation / body weight / body weight + systemic / in life observation / body weight / body weight gain): 331 mg/kg/day
LEL (rat [3]; [6]): 29.7 mg/kg/day
NEL (rat [3]; [6]): 2.96 mg/kg/day
NOAEL (rat [3]; [6]): 29.7 mg/kg/day
LOAEL (dog [4]; [7]): 43.7 mg/kg/day
NOAEL (dog [4]; [7]): 7.25 mg/kg/day
LEL (dog [4]; [8]): 41.8 mg/kg/day
NEL (dog [4]; [8]): 7.37 mg/kg/day
LEL (rat [5]; [9]): 100 mg/kg/day
LOAEL (rat [5]; [9]): 100 mg/kg/day
NEL (rat [5]; [9]): < 100 mg/kg/day
NOAEL (rat [5]; [9]): < 100 mg/kg/day
LEL (rat [5]; [10]): 1000 mg/kg/day
LOAEL (rat [5]; [10]): 1000 mg/kg/day
NEL (rat [5]; [10]): 315 mg/kg/day
NOAEL (rat [5]; [10]): 315 mg/kg/day
